Experimental findings from patent US7033593B2, “Immunogen comprising an HIV envelope protein, a ligand and H2 peptide” (priority 2000, dated 2006) are described below.

The subject of experiment [1] is sCD4-gp140 (HIV 89.6 gp140). The experiment in a line: SPR binding of HR-2 peptides to sCD4-gp140 complex. On the procedure: SPR biosensor measurements were determined on a BIACORE 3000 (BIACORE Inc., Uppsala, Sweden) instrument. […] Binding of proteins and peptides was monitored in real-time at 25° C. and with a continuous flow of PBS, pH 7.4 at […]. Analyte (proteins and peptides) were removed and the sensor surfaces were regenerated following each cycle of binding by single or duplicate […] of regeneration solution (10 mM glycine-HCl, pH 2.5 or 10 mM NaOH).
All analyses were performed using the non-linear fit method of O'Shannessy et al. (O'Shannessy et al, Anal. Biochem. 205:132–136 (1992)) and the BIAevaluation 3.0 software (BIACORE Inc). Rate and equilibrium constants were derived from curve fitting to the Langmuir equation for a simple bimolecular interaction (A+B=AB).
A blank chip served as an in-line reference surface for subtraction of non-specific binding and bulk responses.
Surface Plasmon Resonance Biosensor Measurements. SPR biosensor measurements were determined on a BIACORE 3000 (BIACORE Inc., Uppsala, Sweden) instrument. […] A blank in-line reference surface (activated and de-activated for amine coupling) was used to subtract non-specific or bulk responses. Binding of proteins and peptides (biotinylated or free DP178, T649Q26L, DP178-scrambled) was monitored in real-time at 25° C. with a continuous flow of PBS (150 mM NaCl, 0.005% surfactant p20), pH 7.4 at 10–30 μl/min. Analyte (proteins and peptides) were removed and the sensor surfaces were regenerated following each cycle of binding by single or duplicate 5–10 μl pulses of regeneration solution (10 mM glycine-HCl, pH 2.5 or 10 mM NaOH).

Another experiment has as its system recombinant ADA gp41. The experiment in a line: SPR binding of HR-2 peptide to immobilized recombinant gp41. Details: species or system HIV ADA. How it is done: FIGS. 16A–16F show constitutive binding of HR-2 peptides to immobilized gp41 and CD4 induced binding to gp140. FIGS. 16A and 16B. Binding of DP178 (12.5 to 100 μg/ml) to immobilized ADA gp41 and CD4-gp140 (FIG. 16B) surfaces. FIGS. 16C and 16D. […] FIGS. 16E and 16F. Scatchard plots of RU vs RU/C for DP178 binding to gp41 (FIG. 16E) and to CD4-gp140 (FIG. 16F). Data are representative of 2 separate experiments.
Binding of HR-2 peptide to recombinant gp41. To directly determine if HR-2 peptides can constitutively bind to purified gp41, recombinant ADA gp41 was immobilized to a sensor surface and the binding of HR-2 peptide, DP178, determined. […] To compare the binding of DP178 HR-2 peptide to recombinant gp41 versus HIV 89.6 gp140-sCD4 complex, the equilibrium binding contants (Keq) of HR-2 binding to both were measured. While the Keq of DP178 binding to recombinant gp41 was weak at 26.7 μM (FIG. 16E), the Keq of DP178 binding to sCD4-gp140 was 10 fold stronger at 1.7 μM (FIG. 16F).

The mark [2] stands for this setting: Scatchard plot, read-out: Keq (equilibrium binding constant).

“Also recorded” adds a separate entry of the source. Like-named read-outs stand apart in the source and are kept apart here.

On to enfuvirtide, for which the “binding to sCD4-gp140 surface (in words)” value in experiment [1] (SPR) is given as “much higher binding; also recorded: bound specifically”. Moreover, the Kd in experiment [1] (setting [2]) was 1.7 µM; in experiment [1] (sCD4-gp140 complexes, without CCR5-D1, read-out: Kd), 0.7 µM; on recombinant ADA gp41 (setting [2]), 26.7 µM. Besides, in experiment [1] (cleaved gp140 after sCD4), the “kd (off-rate)” value turned out to be 0.0056 s⁻¹. Besides, the “Keq stronger than for recombinant gp41” value in experiment [1] (sCD4-gp140 vs gp41) came out at 10 fold. For the same substance, in experiment [1] (with sCD4), the “Rm (maximal binding at equilibrium)” value is 320 RU. For the same substance, the “increase of Rm by soluble CD4” value in experiment [1] (with vs without sCD4) is on record as about 10 fold. For the same substance, the “binding to immobilized gp41 (in words)” value in the experiment with recombinant ADA gp41 (SPR) is “bound well”.
